Experimental data from ChEMBL document CHEMBL3885881, “DrugMatrix”.
Where “and” joins values, the source holds several entries; their conditions need not be identical. Identical values can stand only once.

Species: Rattus norvegicus
Assay: DrugMatrix - Regimen: Daily Repeat
Type: toxicity, organism-based, Sprague-Dawley
Design: regimen Daily Repeat, gender Male, age 6-8 weeks
Conditions: in vivo; for ABSOLUTE BASOPHIL / ABSOLUTE EOSINOPHIL / ABSOLUTE LYMPHOCYTE / ABSOLUTE MONOCYTE / ABSOLUTE SEGMENTED NEUTROPHIL / HEMOGLOBIN / MEAN CORPUSCULAR HEMOGLOBIN / MEAN CORPUSCULAR VOLUME / BASOPHIL / EOSINOPHIL / ERYTHROCYTE COUNT / HEMATOCRIT / LEUKOCYTE COUNT / LYMPHOCYTE / MEAN CORPUSCULAR HEMOGLOBIN CONCENTRATION / MONOCYTE / NEUTROPHIL / PLATELET COUNT / NUCLEATED RED BLOOD CELLS: tissue Blood
[1] = ip, 40 mg/kg, 120 h, tissue Plasma, route intraperitoneal, dose level High, time 5 day, vehicle 100 % SALINE
[2] = ip, 40 mg/kg, […], route intraperitoneal, dose level High, time 14 day, vehicle 100 % SALINE
[3] = ip, 40 mg/kg, […], route intraperitoneal, dose level High, time 28 day, vehicle 100 % SALINE
[4] = ip, 40 mg/kg, […], tissue Plasma, route intraperitoneal, dose level High, time 14 day, vehicle 100 % SALINE
[5] = ip, 40 mg/kg, […], tissue Plasma, route intraperitoneal, dose level High, time 28 day, vehicle 100 % SALINE
[6] = sc, 34 mg/kg, 72 h, route subcutaneous, dose level Low, time 3 day, […]
[7] = sc, 34 mg/kg, 72 h, tissue Plasma, route subcutaneous, dose level Low, time 3 day, […]
[8] = sc, 34 mg/kg, 120 h, route subcutaneous, dose level Low, time 5 day, […]
[9] = sc, 34 mg/kg, 120 h, tissue Plasma, route subcutaneous, dose level Low, time 5 day, […]

GENTAMICIN
LIPASE [1]: 13.6 u/L and 7.25 u/L
PHOSPHORUS [1]: 12.05 mg/dL
POTASSIUM [1]: 5.95 MEQ/L
SODIUM [1]: 150.75 MEQ/L
TOTAL BILIRUBIN [1]: 0.18 mg/dL and 0.33 mg/dL
TOTAL PROTEIN [1]: 5.74 G/DL and 6.48 G/DL
URIC ACID [1]: 0.96 mg/dL
ABSOLUTE BASOPHIL [2]: 72 cells/µL
ABSOLUTE EOSINOPHIL [2]: 92 cells/µL
ABSOLUTE LYMPHOCYTE [2]: 8980 cells/µL
ABSOLUTE MONOCYTE [2]: 190 cells/µL
ABSOLUTE SEGMENTED NEUTROPHIL [2]: 1000 cells/µL
HEMOGLOBIN [2]: 15.3 G/DL
MEAN CORPUSCULAR HEMOGLOBIN [2]: 19.4 pg
MEAN CORPUSCULAR VOLUME [2]: 59.54 fL
ABSOLUTE BASOPHIL [3]: 99 cells/µL
ABSOLUTE EOSINOPHIL [3]: 110 cells/µL
ABSOLUTE LYMPHOCYTE [3]: 11600 cells/µL
ABSOLUTE MONOCYTE [3]: 260 cells/µL
ABSOLUTE SEGMENTED NEUTROPHIL [3]: 1950 cells/µL
BASOPHIL [3]: 0.7%
EOSINOPHIL [3]: 0.81%
ERYTHROCYTE COUNT [3]: 8.29 x10E6/uL
HEMATOCRIT [3]: 46.05%
HEMOGLOBIN [3]: 15.27 G/DL
LEUKOCYTE COUNT [3]: 14.13 x10E3/uL
LYMPHOCYTE [3]: 82.22%
MEAN CORPUSCULAR HEMOGLOBIN [3]: 18.44 pg
MEAN CORPUSCULAR HEMOGLOBIN CONCENTRATION [3]: 33.17 G/DL
MEAN CORPUSCULAR VOLUME [3]: 55.59 fL
MONOCYTE [3]: 1.82%
NEUTROPHIL [3]: 14.01%
PLATELET COUNT [3]: 1416.3 x10E3/uL
CARBON DIOXIDE [4]: 25.75 mmol/L
CHLORIDE [4]: 107 MEQ/L
SODIUM [4]: 150 MEQ/L
ALANINE AMINOTRANSFERASE [5]: 32.3 u/L
ALBUMIN [5]: 3.62 G/DL
ALKALINE PHOSPHATASE [5]: 139.3 u/L
ASPARTATE AMINOTRANSFERASE [5]: 96 u/L
BLOOD UREA NITROGEN [5]: 14.9 mg/dL
CHOLESTEROL [5]: 65.3 mg/dL
CREATINE PHOSPHOKINASE [5]: 320.4 u/L
CREATININE [5]: 0.65 mg/dL
LACTATE DEHYDROGENASE [5]: 119.4 u/L
LIPASE [5]: 11 u/L
PHOSPHORUS [5]: 9.46 mg/dL
POTASSIUM [5]: 6.33 MEQ/L
TOTAL BILIRUBIN [5]: 0.17 mg/dL
TOTAL PROTEIN [5]: 6.66 G/DL
URIC ACID [5]: 1.24 mg/dL
ABSOLUTE BASOPHIL [6]: 0 CELLS/uL
ABSOLUTE EOSINOPHIL [6]: 60.67 CELLS/uL
ABSOLUTE LYMPHOCYTE [6]: 14515.67 CELLS/uL
ABSOLUTE MONOCYTE [6]: 63 CELLS/uL
ABSOLUTE SEGMENTED NEUTROPHIL [6]: 1227.33 CELLS/uL
BASOPHIL [6]: 0%
EOSINOPHIL [6]: 0.33%
ERYTHROCYTE COUNT [6]: 5.19 x10E6/uL
HEMATOCRIT [6]: 32.97%
HEMOGLOBIN [6]: 12.73 G/DL
LEUKOCYTE COUNT [6]: 15.87 x10E3/uL
LYMPHOCYTE [6]: 91.67%
MEAN CORPUSCULAR HEMOGLOBIN [6]: 24.57 pg
MEAN CORPUSCULAR HEMOGLOBIN CONCENTRATION [6]: 38.63 G/DL
MEAN CORPUSCULAR VOLUME [6]: 63.57 fL
MONOCYTE [6]: 0.33%
NEUTROPHIL [6]: 7.67%
NUCLEATED RED BLOOD CELLS [6]: 0 /100WBC
PLATELET COUNT [6]: 1222.33 x10E3/uL
ALANINE AMINOTRANSFERASE [7]: 55.67 u/L
ALBUMIN [7]: 4 G/DL
ALKALINE PHOSPHATASE [7]: 327 u/L
ASPARTATE AMINOTRANSFERASE [7]: 105 u/L
BLOOD UREA NITROGEN [7]: 14.67 mg/dL
CARBON DIOXIDE [7]: 20.67 mmol/L
CHLORIDE [7]: 107.33 MEQ/L
CHOLESTEROL [7]: 82 mg/dL
CREATINE PHOSPHOKINASE [7]: 574.67 u/L
CREATININE [7]: 0.29 mg/dL
GLUCOSE [7]: 196.33 mg/dL
LACTATE DEHYDROGENASE [7]: 268.67 u/L
LIPASE [7]: 11.33 u/L
POTASSIUM [7]: 6.59 MEQ/L
SODIUM [7]: 147.27 MEQ/L
TOTAL BILIRUBIN [7]: 0.2 mg/dL
TOTAL PROTEIN [7]: 5.7 G/DL
ABSOLUTE BASOPHIL [8]: 0 CELLS/uL
ABSOLUTE EOSINOPHIL [8]: 0 CELLS/uL
ABSOLUTE LYMPHOCYTE [8]: 14029.67 CELLS/uL
ABSOLUTE MONOCYTE [8]: 90.67 CELLS/uL
ABSOLUTE SEGMENTED NEUTROPHIL [8]: 1246.33 CELLS/uL
BASOPHIL [8]: 0%
EOSINOPHIL [8]: 0%
ERYTHROCYTE COUNT [8]: 5.74 x10E6/uL
HEMOGLOBIN [8]: 13.5 G/DL
LEUKOCYTE COUNT [8]: 15.37 x10E3/uL
LYMPHOCYTE [8]: 91%
MEAN CORPUSCULAR HEMOGLOBIN [8]: 23.57 pg
MEAN CORPUSCULAR HEMOGLOBIN CONCENTRATION [8]: 36.03 G/DL
MONOCYTE [8]: 0.67%
NEUTROPHIL [8]: 8.33%
NUCLEATED RED BLOOD CELLS [8]: 0 /100WBC
PLATELET COUNT [8]: 1310.33 x10E3/uL
ALANINE AMINOTRANSFERASE [9]: 46.33 u/L
ALBUMIN [9]: 4.2 G/DL
ALKALINE PHOSPHATASE [9]: 391.33 u/L
ASPARTATE AMINOTRANSFERASE [9]: 95.33 u/L
CARBON DIOXIDE [9]: 24 mmol/L
CHLORIDE [9]: 106.67 MEQ/L
CHOLESTEROL [9]: 71 mg/dL
CREATINE PHOSPHOKINASE [9]: 308.33 u/L
CREATININE [9]: 0.18 mg/dL
LACTATE DEHYDROGENASE [9]: 196.33 u/L
PHOSPHORUS [9]: 13.37 mg/dL
POTASSIUM [9]: 7.64 MEQ/L
TOTAL BILIRUBIN [9]: 0.2 mg/dL
